Experiments:
participants with DMD [1] = experiment: VBP15-003/VBP15-LTE open-label trials, motor outcomes over 18 months; format: in vivo, human; conditions: for TTCLIMB velocity, LS mean difference (SE), ANCOVA / TTSTAND velocity, LS mean difference (SE), ANCOVA / TTRW velocity, LS mean difference (SE), ANCOVA: vamorolone 18 months vs corticosteroid-naïve DNHS
From the text: Assessments of efficacy were motor outcomes (primary outcome: time to stand from supine [TTSTAND]; secondary outcomes: time to run/walk 10 meters [TTRW], time to climb four stairs [TTCLIMB], distance covered in 6-minute walk test [6MWT], and the North Star Ambulatory Assessment [NSAA]). 6MWT and NSAA were not assessed in most CINRG DNHS participants and were not compared to vamorolone-treated participants. According to standard operating procedures, clinical evaluators were trained to harmonize the CINRG vamorolone, CINRG DNHS, and CINRG prednisone studies. Reliability of these outcomes (percent coefficient of variation) has been reported for the VBP15-002/VBP15-003 studies. Assessments were done at baseline (VBP15-002 entry), 24 weeks (VBP15-003 last visit), and 18 months (VBP15-LTE midpoint assessment at 12 months).
Only participants completing VBP15-002 and VBP15-003 were eligible to enroll in VBP15-LTE. Participants received vamorolone at 1 of 4 dose levels (0.25, 0.75, 2.0, or 6.0 mg/kg/day) and at the same dose level in both the 4-week VBP15-002 trial and the 24-week VBP15-003 trial. If participants, their families, and their physicians wished to continue vamorolone treatment upon exiting the VBP15-003 trial, they were offered participation in the 24-month long-term extension (VBP15-LTE). The last visit of the VBP15-003 trial was commensurate with the first visit of the VBP15-LTE trial. In all studies, study medication was provided as 4% flavored liquid suspension and was dosed according to body weight and given once daily in the morning with food.
Vamorolone-treated participants were initially enrolled into VBP15-002 and VBP15-003 in 4 dose groups (0.25, 0.75, 2.0, and 6.0 mg/kg/day; groups A-D). Upon entering VBP15-LTE, vamorolone group A participants had 2 or 3 sequential dose escalations and were treated with 2.0 or 6.0 mg/kg/day for the last 3-9 months of the 18 months; group B participants had 1 or 2 dose escalations and were treated with 2.0 or 6.0 mg/kg/day for the last 9-11 months. Groups C and D were treated for 18 months at 2.0 or 6.0 mg/kg/day (S1 Fig).
The current study is the first to evaluate the longer-term tolerability, efficacy, and safety of vamorolone in DMD. […] Given the variable timing of dose escalations, it was prespecified that initial analyses of drug-related efficacy and safety would be limited to those participants who had 18 months of treatment with 2.0 mg/kg/day vamorolone or more (dose group C+dose group D; n=23). Outcomes for these participants were compared to a group-matched cohort from the CINRG DNHS over 18 months (corticosteroid-naïve, n=19; corticosteroid-treated, n=68). Participants were matched for age and treatment period (±1 month), matching criteria were prespecified in the statistical analysis plan. Two independent statisticians carried out the matching.
Statistical analyses were done on paired longitudinal outcome data using an analysis of covariance (ANCOVA) approach with change from baseline (VBP15-002) to month 18 (midpoint of VBP15-LTE). Baseline response and age were included as covariates. For the vamorolone-treated participants, age was calculated as (date of informed consent minus birthdate)/365.25. For the DNHS participants, age was calculated as (date of baseline visit used minus birthdate)/365.25. The baseline visit for a DNHS participant was the first visit. […] Timed function tests were analyzed as velocity scores to limit the impact of participants who could not perform the test (velocity=0). Velocity measures are variance-stabilizing transformations, suppressing extreme raw outliers from raw values in seconds; these help with distributional assumptions of the statistical models/tests used. Raw data (seconds) are also reported. Velocity scores for TTSTAND (event/second), TTRW (meters/second), and TTCLIMB (event/second) were inputted as 0 at the first response missing due to inability to perform the test. All other data were observed values only, without imputation. […]

participants with DMD [2] = experiment: Physician-reported adverse events in vamorolone trials (DSUR, DSMB report); format: in vivo, human
Experimental: Study visits took place quarterly, including assessment of clinical laboratory results, vital signs, and AEs. All AEs were coded using the Medical Dictionary for Regulatory Activities (MedDRA version 19.0) system for reporting (preferred term and system organ class). Clinical efficacy assessments were performed at baseline of the VBP15-002 study, at six months (end of VBP15-003 study), and the 12-month midpoint visit of the VBP15-LTE study.
A Data and Safety Monitoring Board report on the VBP15-LTE study covering all participants enrolled in the VBP15-LTE study (inclusive beyond the 12-month midpoint assessment) included three serious AEs (2 myoglobinuria events [in the same participant] and one pneumonia), all deemed unrelated to study drug. For all reported TEAEs, 402 were deemed unrelated to vamorolone, 37 were deemed remotely related, 29 were deemed possibly related, 11 were deemed probably related, and three were deemed definitely related. Of the 14 AEs probably and definitely related to vamorolone, 10 were weight gain, 2 were increased appetite, 1 was Cushingoid features, and 1 was irritability.
The incidences of physician-reported AEs typically for corticosteroid treatment were determined for participants that had been treated with vamorolone 6.0 mg/kg/day (for any duration), taken from the March 2019 Data Safety Update Report (DSUR) (pharmacovigilance report). Incidence rates of Cushingoid features, weight gain, hirsutism, and behavior change were studied (Table 8).

[3] = vamorolone 18 months vs corticosteroid-naïve participants
[4] = 6.0 mg/kg/day vamorolone for any duration, n = 38
[5] = VBP15-LTE, DSMB report, all participants

## C[C@@H]1C[C@H]2[C@@H]3CCC4=CC(=O)C=C[C@]4(C)C3=CC[C@]2(C)[C@@]1(O)C(=O)CO [Vamorolone, 17α,21-dihydroxy-16α-methylpregna-1,4,9(11)-triene-3,20-dione]
Participants with DMD [1]
  TTCLIMB velocity, LS mean difference (SE), ANCOVA: 0.059 (0.026) event/second
  TTSTAND velocity, LS mean difference (SE), ANCOVA: 0.042 (0.024) event/second
Participants with DMD [1]; listed as Valmorolone
  TTRW velocity, LS mean difference (SE), ANCOVA: 0.286 (0.09) meters/second
Participants with DMD [1]; listed as vamorolone
  TTCLIMB velocity, LS mean difference (SE), ANCOVA: 0.059 event/second
  TTRW velocity, LS mean difference (SE), ANCOVA: 0.286 meters/second
  TTSTAND velocity, LS mean difference (SE), ANCOVA: 0.042 event/second
Participants with DMD [1]; [3]
  TTCLIMB, LS mean difference, ANCOVA: -0.34 s
  TTRW, LS mean difference, ANCOVA: -0.84 s
  TTSTAND, LS mean difference, ANCOVA: -1.15 s
Participants with DMD [2]; [4]
  Incidence of physician-reported Cushingoid: 2.6%
  Incidence of physician-reported behavior change: 0%^2
  Incidence of physician-reported hypertrichosis/hirsutism: 0%
  Incidence of physician-reported weight gain: 13.2%
Participants with DMD [2]; VBP15-LTE, DSMB report
  Cushingoid features among the 14 AEs probably and definitely related, number: 1
  increased appetite among the 14 AEs probably and definitely related, number: 2
  irritability among the 14 AEs probably and definitely related, number: 1
  weight gain among the 14 AEs probably and definitely related, number: 10
Participants with DMD [2]; [5]
  TEAEs deemed definitely related, number: three
  TEAEs deemed possibly related, number: 29
  TEAEs deemed probably related, number: 11
  TEAEs deemed remotely related, number: 37
  TEAEs deemed unrelated to vamorolone, number: 402
Participants with DMD [2]; VBP15-LTE, DSMB report, all deemed unrelated to study drug
  serious AEs, number: three

Reference: US20240139210A1, “TREATMENT OF NF-KB-MEDIATED DISEASE” (ReveraGen BioPharma, Inc., priority 2020, published 2024)
